Experimental findings from patent US20240254533A1, “METHODS FOR PRODUCING TRYPTAMINE DERIVATIVES” (OCTARINE BIO APS, priority 2021, published 2024) are described below.

The structures appear in SMILES notation.

The nature of this data set: Chemical stability of substituted tryptamine derivatives under alkaline, acidic, oxidative and heat stress. It is filed as physicochemical. As to conditions: for Degradation after 24 h exposure (in words): all conditions tested. The procedure: Chemical stability of substituted tryptamine derivatives was determined under alkaline, acidic, oxidative and heat stress as follows. 25 mM stock solutions of the target tryptamine molecules were prepared in 100% methanol. 15 μL is mixed with 5 μL of 400 mM HCl solution (final pH=1.1), 400 mM NaOH solution (Final pH=12.5), 12% H2O2 solution (final concentration 3%), or H2O pH 7.0. Acidic, alkaline and oxidative samples were incubated at 30° C. for 24 h while samples in water were incubated at 80° C. for 24 h. A control under ambient conditions was also prepared where 15 μL of the molecule was added to 5 μL H2O pH 7.0 and incubated at 30° C. After 24 h samples were placed on ice and 60 μL of ice-cold 100% methanol is added to each sample. Samples were centrifuged and transferred to HPLC vials for analysis. The remaining concentration was quantified by comparing to authentic analytical standards. Determining the presence of degradation products were determined by comparing with authentic analytical standards.
While the added phosphate group of psilocybin helps protect the molecule from degradation, psilocybin is also relatively unstable, prone to dephosphorylation to psilocin and subsequent degradation. The instability of these molecules hinders formulation and delivery of the compound for therapeutic use. To improve the chemical stability of the active compound psilocin, glycosylation can be used as an effective strategy. […] Degradation of each compound was assessed by measuring the amount of compound remaining after 24 h exposure to each condition.

The mark [1] stands for this setting: pH = 1.1 (HCl), 24 h incubation.
Setting [2] is: pH = 12.5 (NaOH), 24 h incubation.

For `CN(C)CCc1c[nH]c2cccc(O)c12` [Psilocin], the “Degradation after 24 h exposure (in words)” value (from here on “Degradation”) is listed as “complete degradation”. In addition, under “3% H2O2, 24 h incubation”, the “% left after 24 h” value amounted to 0.0%. Besides, the “% left after 24 h” value (4° C., 24 h incubation) is recorded as 0.0%. Also, the “% left after 24 h” value (30° C., 24 h incubation) came out at 0.0%. Where the note is “80° C., 24 h incubation”, the “% left after 24 h” value came to 0.0%. For the same molecule, the “% left after 24 h” value (Control) came to 100.0%. The “% left after 24 h” value under setting [1] was 0.0%. Also, under setting [2], the “% left after 24 h” value was determined as 0.0%.

On to `CN(C)CCc1c[nH]c2cccc(O[C@@H]3O[C@H](CO)[C@@H](O)[C@H](O)[C@H]3O)c12` [Psilocin glucoside, psilocin-O-β-D-glucoside], for which the “Degradation” value is recorded as “practically no signs of degradation”. Further, the “% left after 24 h” value (3% H2O2, 24 h incubation) is on record as 100.0%. Further, the “% left after 24 h” value (4° C., 24 h incubation) is recorded as 100.0%. Where the note is “30° C., 24 h incubation”, the “% left after 24 h” value was determined as 100.0%. In addition, where the note is “80° C., 24 h incubation”, the “% left after 24 h” value stood at 100.0%. Moreover, under “Control”, the “% left after 24 h” value amounted to 100.0%. In addition, the “% left after 24 h” value under setting [1] is listed as 100.0%. The “% left after 24 h” value under setting [2] amounted to 100.0%.

On to `CN(C)CCc1c[nH]c2cccc(OP(=O)(O)O)c12` [Psilocybin], for which the “Degradation” value is “much less degradation compared to psilocin”.
